# Experimental data reported in ChEMBL document CHEMBL5370580, “Discovery of three-dimensional bicyclo[3.3.1]nonanols as novel heat shock protein 90 inhibitors” (Bioorg Med Chem, 2023).
# pIC50: −log10 of the molar value. Activity calls are given as the source filed them. No cut-off for these calls is given here.
# Experiments:
# [1] = Inhibition of HIF-1 mediated gene transcription activity in human HeLa cells co-expressing HRE dependent firefly luciferase reporter gene pre-incubated for 1 hrs followed by incubation at hypoxic condition for 12 hrs by luciferase reporter gene assay; format: cell-based
# [2] = test system: HeLa; test: Anticancer activity against human HeLa cells assessed as cell growth inhibition measured after 72 hrs by MTT assay; format: functional, cell-based
# [3] = target: T1, Heat shock factor protein 1 (Homo sapiens) (UniProt Q00613); test: Activation of HSF1 in human HeLa cells assessed as increase in HSP47 mRNA expression at 100 uM measured after 12 hrs by Real-time PCR assay; format: cell-based
# T1 sequence (whole entry): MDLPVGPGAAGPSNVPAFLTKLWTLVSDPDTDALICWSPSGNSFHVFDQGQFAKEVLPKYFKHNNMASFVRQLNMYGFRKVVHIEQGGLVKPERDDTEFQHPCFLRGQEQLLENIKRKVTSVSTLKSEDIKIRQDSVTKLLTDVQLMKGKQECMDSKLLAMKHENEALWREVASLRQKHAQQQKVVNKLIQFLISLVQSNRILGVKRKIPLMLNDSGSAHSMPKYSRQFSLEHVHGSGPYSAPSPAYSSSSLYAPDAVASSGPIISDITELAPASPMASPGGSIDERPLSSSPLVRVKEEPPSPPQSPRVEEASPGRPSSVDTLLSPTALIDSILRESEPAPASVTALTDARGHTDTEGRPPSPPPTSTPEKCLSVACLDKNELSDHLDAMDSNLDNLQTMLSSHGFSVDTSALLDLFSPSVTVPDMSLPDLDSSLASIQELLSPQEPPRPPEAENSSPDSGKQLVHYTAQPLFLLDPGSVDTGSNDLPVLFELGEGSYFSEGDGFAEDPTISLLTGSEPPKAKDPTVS
# [4] = test system: HeLa; test: Effect on CA9 mRNA expression in human HeLa cells at 100 uM pre-incubated for 1 hr followed by incubation at hypoxic condition for 12 hrs by RT-PCR assay; format: functional, cell-based; conditions: time 13.0 hrs
# [5] = target: T1, Heat shock factor protein 1 (Homo sapiens); test: Activation of HSF1 in human HeLa cells assessed as increase in HSP27 mRNA expression at 100 uM measured after 12 hrs by Real-time PCR assay; format: cell-based
# [6] = target: T2, Heat shock protein HSP90 (Homo sapiens, UniProt P07900+P08238); test: Inhibition of recombinant human HSP90 ATPase activity expressed in Escherichia coli BL21 incubated for 3 hrs in presence of ATP by malachite green dye based microplate reader analysis
# [7] = Inhibition of recombinant luciferase (unknown origin) incubated for 10 mins by luminescence based microplate reader analysis
# [8] = target: T2, Heat shock protein HSP90; test: Inhibition of HSP90 in human HeLa cells assessed as reduction in p70s6k phosphorylation at 30 to 100 uM measured after 12 hrs by Western blot analysis; format: cell-based; conditions: dose 30-100 µM
# [9] = target: T1, Heat shock factor protein 1 (Homo sapiens); test: Activation of HSF1 in human HeLa cells assessed as increase in HSP70 mRNA expression at 100 uM measured after 12 hrs by Real-time PCR assay; format: cell-based
# [10] = test system: HeLa; test: Effect on HSP70 protein expression in human HeLa cells at 30 to 100 uM measured after 24 hrs by Western blot analysis; format: functional, cell-based; conditions: dose 30-100 µM
# [11] = target: Hypoxia-inducible factor 1-alpha (Homo sapiens) (UniProt Q16665); test: Induction of HIF-1alpha degradation in human HeLa cells assessed as reduction in HIF-1alpha accumulation upto 100 uM incubated for 12 hrs under hypoxia condition by Western blot analysis; format: cell-based
# Chain of Hypoxia-inducible factor 1-alpha (Homo sapiens) (Q16665 whole entry, looked up): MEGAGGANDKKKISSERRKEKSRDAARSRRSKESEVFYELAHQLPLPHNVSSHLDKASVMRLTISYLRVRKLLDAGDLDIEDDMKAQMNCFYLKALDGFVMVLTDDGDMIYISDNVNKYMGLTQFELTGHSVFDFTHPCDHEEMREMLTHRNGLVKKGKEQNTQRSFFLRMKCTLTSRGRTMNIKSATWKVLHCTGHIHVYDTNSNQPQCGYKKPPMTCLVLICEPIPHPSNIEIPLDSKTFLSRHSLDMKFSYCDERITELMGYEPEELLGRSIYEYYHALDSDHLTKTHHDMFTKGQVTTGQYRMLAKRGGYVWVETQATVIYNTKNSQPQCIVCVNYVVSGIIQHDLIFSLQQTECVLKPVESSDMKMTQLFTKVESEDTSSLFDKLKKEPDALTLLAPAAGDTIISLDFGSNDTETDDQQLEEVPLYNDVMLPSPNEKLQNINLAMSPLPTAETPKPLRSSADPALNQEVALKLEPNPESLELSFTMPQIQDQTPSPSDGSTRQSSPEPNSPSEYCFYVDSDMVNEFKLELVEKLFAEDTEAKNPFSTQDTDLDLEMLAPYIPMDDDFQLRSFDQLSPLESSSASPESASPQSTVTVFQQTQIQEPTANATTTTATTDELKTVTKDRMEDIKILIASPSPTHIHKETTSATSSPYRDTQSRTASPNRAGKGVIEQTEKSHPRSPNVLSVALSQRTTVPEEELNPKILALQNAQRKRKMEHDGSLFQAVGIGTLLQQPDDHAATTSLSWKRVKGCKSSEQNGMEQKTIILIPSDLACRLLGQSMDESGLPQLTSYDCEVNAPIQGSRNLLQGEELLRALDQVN
# [12] = target: T2, Heat shock protein HSP90; test: Inhibition of HSP90 in human HeLa cells assessed as reduction in CDK4 protein expression at 30 to 100 uM measured after 24 hrs by Western blot analysis; format: cell-based; conditions: dose 30-100 µM
# [13] = test system: HeLa; test: Effect on HIF-1alpha mRNA expression in human HeLa cells at 1 to 100 uM pre-incubated for 1 hr followed by incubation at hypoxic condition for 12 hrs by semi-quantitative RT-PCR assay; format: functional, cell-based; conditions: dose 1-100 µM, time 13.0 hrs
# [14] = Effect on HSP70 protein expression in human HeLa cells assessed as fold change at 100 uM measured after 24 hrs by immunoblotting analysis (reference value: 1); format: functional
# [15] = test system: HeLa; test: Effect on HSP90 protein expression in human HeLa cells at 30 to 100 uM measured after 24 hrs by Western blot analysis; format: functional, cell-based; conditions: dose 30-100 µM
# [16] = Effect on CDK4 protein expression in human HeLa cells assessed as fold change at 100 uM measured after 24 hrs by immunoblotting analysis (reference value: 1); format: functional
# [17] = target: Hypoxia-inducible factor 1-alpha (Homo sapiens) (UniProt Q16665); test: Induction of HIF-1alpha degradation in human HeLa cells assessed as reduction in CA9 protein expression upto 100 uM incubated for 12 hrs under hypoxia condition by Western blot analysis; format: cell-based
# [18] = target: T2, Heat shock protein HSP90; test: Inhibition of HSP90 in human HeLa cells assessed as reduction in ERK phosphorylation at 30 to 100 uM measured after 12 hrs by Western blot analysis; format: cell-based; conditions: dose 30-100 µM
# [19] = test system: HeLa; test: Effect on CA9 mRNA expression in human HeLa cells at 1 to 100 uM pre-incubated for 1 hr followed by incubation at hypoxic condition for 12 hrs by semi-quantitative RT-PCR assay; format: functional, cell-based; conditions: dose 1-100 µM, time 13.0 hrs
# [20] = test system: HeLa; test: Effect on HIF-1alpha mRNA expression in human HeLa cells at 100 uM pre-incubated for 1 hr followed by incubation at hypoxic condition for 12 hrs by RT-PCR assay; format: functional, cell-based; conditions: time 13.0 hrs
# [21] = target: T2, Heat shock protein HSP90; test: Inhibition of HSP90 in human HeLa cells assessed as reduction in AKT phosphorylation at 30 to 100 uM measured after 12 hrs by Western blot analysis; format: cell-based; conditions: dose 30-100 µM
# [22] = Effect on HSF1 protein expression in human HeLa cells assessed as fold change at 100 uM measured after 24 hrs by immunoblotting analysis (reference value: 1); format: functional
# [23] = target: T2, Heat shock protein HSP90; test: Inhibition of recombinant human HSP90 expressed in Escherichia coli BL21 assessed as increase in DTT induced insulin aggregation by measuring increase in absorbance at 100 uM pre-incubated for 1 hrs followed by DTT addition by microplate reader analysis
# [24] = Effect on HSP90 protein expression in human HeLa cells assessed as fold change at 100 uM measured after 24 hrs by immunoblotting analysis (reference value: 1); format: functional
# [25] = Downregulation of p-AKT protein expression in human Hela cells assessed as fold change at 100 uM measured after 24 hrs by immunoblotting analysis (reference value: 1); format: functional
# [26] = target: T1, Heat shock factor protein 1 (Homo sapiens); test: Activation of HSF1 in human HeLa cells assessed as increase in HSP27 mRNA expression at 10 uM measured after 12 hrs by Real-time PCR assay; format: cell-based; conditions: filed as activator
# [27] = target: T1, Heat shock factor protein 1 (Homo sapiens); test: Activation of HSF1 in human HeLa cells assessed as increase in HSP70 mRNA expression at 10 uM measured after 12 hrs by Real-time PCR assay; format: cell-based; conditions: filed as activator
# [28] = Effect on HSP90 protein expression in human HeLa cells assessed as fold change at 10 uM measured after 24 hrs by immunoblotting analysis (reference value: 1); format: functional
# [29] = Effect on HSF1 protein expression in human HeLa cells assessed as fold change at 10 uM measured after 24 hrs by immunoblotting analysis (reference value: 1); format: functional
# [30] = Effect on HSP70 protein expression in human HeLa cells assessed as fold change at 10 uM measured after 24 hrs by immunoblotting analysis (reference value: 1); format: functional
# [31] = Downregulation of CDK4 protein expression in human Hela cells assessed as fold change at 10 uM measured after 24 hrs by immunoblotting analysis (reference value: 1); format: functional
# [32] = target: T1, Heat shock factor protein 1 (Homo sapiens); test: Activation of HSF1 in human HeLa cells assessed as increase in HSP47 mRNA expression at 10 uM measured after 12 hrs by Real-time PCR assay; format: cell-based; conditions: filed as activator
# [33] = Downregulation of p-AKT protein expression in human Hela cells assessed as fold change at 10 uM measured after 24 hrs by immunoblotting analysis (reference value: 1); format: functional
SMILES,pIC50 [1],pIC50 [2],Activity [3],Activity [4],Activity [5],inhibition [7],inhibition [8],Activity [9],Activity [10],Activity [11],inhibition [12],Activity [13],fold change (FC) [14],Activity [15],fold change (FC) [16],Activity [17],inhibition [18],Activity [19],Activity [20],inhibition [21],other results
CCCC[C@@H]1C[C@@H]2C(C(=O)OCC(C)C)=C(O)[C@H](C(=O)OC)[C@@](O)([C@@H]1C(=O)OCC(C)C)[C@H]2C(=O)O,< 4.00,4.65,,,,,,,,,,,,,,,,,,,
CCCC[C@@H]1C[C@@H]2C(C(=O)OCC(C)C)=C(O)[C@H](C(=O)OCC(C)C)[C@@](O)([C@@H]1C(=O)OCC(C)C)[C@H]2C(=O)O,4.44,4.73,inactive,Active,inactive,Active,Active,inactive,inactive,Active,Active,inactive,0.97,inactive,0.52,Active,Active,Active,inactive,Active,IC50 [6]: 45.8 µM; fold change (FC) [22]: 0.9; inhibition [23]: inactive; fold change (FC) [24]: 0.95
CCCC[C@@H]1C[C@@H]2C(C(=O)OCC(C)C)=C(O)[C@H](C(=O)OCC(C)C)[C@@](O)([C@@H]1C(=O)OCC(C)C)[C@H]2C(=O)OCC(C)C,< 4.00,4.14,,,,,,,,,,,,,,,,,,,
COC(=O)C1=C(O)[C@H](C(=O)OC)[C@@]2(O)[C@H](C(=O)OC)[C@H](C)C[C@H]1[C@@H]2C(=O)O,< 4.00,< 4.00,,,,,,,,,,,,,,,,,,,
CCCC[C@@H]1C[C@@H]2C(C(=O)OC)=C(O)[C@H](C(=O)OC)[C@@](O)([C@@H]1C(=O)OC)[C@H]2C(=O)O,< 4.00,4.35,,,,,,,,,,,,,,,,,,,
CC(C)COC(=O)C1=C(O)[C@H](C(=O)OCC(C)C)[C@@]2(O)[C@H](C(=O)OCC(C)C)[C@H](C)C[C@H]1[C@@H]2C(=O)O,4.30,4.73,inactive,Active,inactive,Active,Active,inactive,inactive,Active,Active,inactive,0.99,inactive,0.6,Active,Active,Active,inactive,Active,IC50 [6]: 95 µM; fold change (FC) [25]: 0.51; fold change (FC) [22]: 0.98; inhibition [23]: inactive; fold change (FC) [24]: 0.96
CCCC[C@@H]1C[C@@H]2C(C(=O)OCC(C)C)=C(O)[C@H](C(=O)OC)[C@@](O)([C@@H]1C(=O)OC)[C@H]2C(=O)O,4.15,4.40,inactive,Active,inactive,Active,Active,inactive,inactive,Active,Active,inactive,0.95,inactive,0.78,Active,Active,Active,inactive,Active,fold change (FC) [25]: 0.82; fold change (FC) [22]: 1.02; inhibition [23]: inactive; fold change (FC) [24]: 0.97
COC1=C2C[C@@H](C)C[C@H](OC)[C@H](O)[C@@H](C)/C=C(\C)[C@H](OC(N)=O)[C@@H](OC)/C=C\C=C(/C)C(=O)NC(=CC1=O)C2=O [GELDANAMYCIN],,,,,,,,,,,,,,,,,,,,,Activity [26]: Active; Activity [27]: Active; fold change (FC) [28]: 0.93; fold change (FC) [29]: 1.06; fold change (FC) [30]: 1.96; fold change (FC) [31]: 0.71; Activity [32]: Active; fold change (FC) [33]: 0.7
